Patent US20100255580A1, “Differentiation of Human Embryonic Stem Cells” (LIFESCCAN, INC., priority 2007, published 2010)

Test system: H9 embryonic stem cells
Type: cell-based, human
Details: low serum, on MATRIGEL
Procedure: Controls for each group included cells plated on […]-coated dishes and cultured in MEF-conditioned medium or cells plated on MEFs and cultured in ES medium. All groups contained three biological replicates and each biological replicate was repeated on two separate gene chips.
Sample preparation, hybridization, and image analysis were performed according to the Affymetrix Human Genome U133 Plus 2.0 Array. Following normalization and a log transformation, data analysis was performed using OmniViz® software (MA) and […] (VizXLabs, WA). Significant differences in gene expression between the samples were evaluated using analysis of variance and an F-test with adjusted P-value (Benjamini and
Hochberg correction) of ≦b 0.05. Only genes with a present call in at least one group were included in the analysis.

Substance: Activin A: a member of the TGFβ superfamily; R&D Systems; Group 2 = Activin A (100 ng/ml)
- log intensity, H2A histone family, member X: 1.371
- log intensity, H. sapiens skeletal embryonic myosin light chain 1 (MLC1): 0.6901
- log intensity, HT016 mRNA: 0.2188
- log intensity, Homo sapiens nudix (nucleoside diphosphate linked moiety X)-type motif (r1198): 3.915
- log intensity, Human DNA sequence from clone RP4-781L3 on chromosome 1p34.3-36.11: 2.828
- log intensity, Human DNA sequence from clone RP11-446H13 on chromosome 10: −0.8894
- log intensity, Human MLC1emb gene for embryonic myosin alkaline light chain, promoter and exon 1: 1.3489
- log intensity, Human clone 23826 mRNA sequence: 1.808
- log intensity, Human embryonic myosin alkali light chain (MLC1): 1.942
- log intensity, Human extracellular matrix protein 1 (ECM1): 0.6348
- log intensity, Human mRNA for pro-alpha 1 (II) collagen 3end C-term.: 0.8598
- log intensity, Human rho GDI mRNA: 0.01936
- log intensity, KIAA0127 gene product (KIAA0127): 2.052
- log intensity, KIAA0346 protein: −1.347
- log intensity, KIAA0418 gene product: −0.6776
- log intensity, KIAA0761 protein: −2.096
- log intensity, KIAA0882 protein: 2.056
- log intensity, KIAA0918 protein: −1.397
- log intensity, KIAA1415 protein: 0.1859
- log intensity, KIAA1511 protein: 0.6203
- log intensity, Kruppel-like factor 8 (KLF8): 0.3261
- log intensity, LIM homeobox protein 1 (LHX1): −0.7717
- log intensity, LYST-interacting protein LIP3: −0.6821
- log intensity, MAD (mothers against decapentaplegic, Drosophila) homolog 6 (MADH6): 0.9175
- log intensity, MYC-associated zinc finger protein (purine-binding transcription factor) (MAZ): −0.05557
- log intensity, Novel human mRNA from chromosome 22: −0.5337
- log intensity, PNAS-145 mRNA: 2.85
- log intensity, PRO1957 mRNA: 1.689
- log intensity, PTPRF interacting protein, binding protein 2 (liprin beta 2): −1.92
- log intensity, Pig10 (PIG10): 0.1295
- log intensity, SG2NA beta isoform: −1.156
- log intensity, Similar to B9 protein, clone MGC: 11339: 1.439
- log intensity, Similar to RIKEN cDNA C330013D18 gene, clone MGC: 11226: 0.08747
- log intensity, Similar to lipase protein, clone MGC: 2843: −1.161
- log intensity, X75208 H. sapiens HEK2 mRNA for protein tyrosine kinase receptor: −1.367
- log intensity, adaptor-related protein complex 3, beta 2 subunit (AP3B2): −0.2083
- log intensity, adenylate cyclase 8 (brain) (ADCY8): −1.3408
- log intensity, alpha 2,8-sialyltransferase: −1.105
- log intensity, aminolevulinate, delta-, dehydratase, clone MGC: 5057: 1.3099
- log intensity, annexin A6 (ANXA6), transcript variant 1: 3.89
- log intensity, apolipoprotein A-II (APOA2): −1.102
- log intensity, apolipoprotein C-I (APOC1): 3.25
- log intensity, arrestin, beta 1 (ARRB1), transcript variant 1: −0.1588
- log intensity, bHLH factor Hes4 (LOC57801): 0.4782
- log intensity, beta3GalNAcT-1 mRNA for globoside synthase, clone: type 2: −2.733
- log intensity, bone morphogenetic protein 2 (BMP2): 2.045
- log intensity, bone morphogenetic protein 5 (BMP5): −0.6099
- log intensity, bromodomain and PHD finger containing, 3: −2.8472
- log intensity, c-mer proto-oncogene tyrosine kinase (MERTK): 1.79
- log intensity, cDNA FLJ11390 fis, clone HEMBA1000561: −1.129
- log intensity, cDNA FLJ13221 fis, clone NT2RP4002075: 0.2828
- log intensity, cDNA FLJ13392 fis, clone PLACE1001280: −1.902
- log intensity, cDNA FLJ13810 fis, clone THYRO1000279: −2.924
- log intensity, cDNA FLJ30081 fis, clone BGGI12000693: 0.6779
- log intensity, cDNA FLJ34035 fis, clone FCBBF2004788: −3.58
- log intensity, cDNA FLJ36116 fis, clone TESTI2022338: 3.026
- log intensity, cDNA: FLJ22731 fis, clone HSI15841: −2.309
- log intensity, cDNA: FLJ22808 fis, clone KAIA2925: −0.3674
- log intensity, cDNA: FLJ23067 fis, clone LNG04993: −2.256
- log intensity, calmegin (CLGN): −0.1043
- log intensity, cardiac ankyrin repeat protein (CARP): −0.002291
- log intensity, cartilage linking protein 1: 0.8794
- log intensity, caspase-like apoptosis regulatory protein 2 (clarp): 0.4342
- log intensity, chemokine receptor CXCR4 mRNA: 2.306
- log intensity, cleft lip and palate associated transmembrane protein 1, clone MGC: 10593: 1.316
- log intensity, clone FLC1492 PRO3121 mRNA: −0.3
- log intensity, clone HB-2 mRNA sequence: −0.5039
- log intensity, clone IMAGE: 3509274, mRNA, partial cds: 0.4937
- log intensity, clone IMAGE: 4047715, mRNA: −2.508
- log intensity, clone MGC: 14801: 2.039
- log intensity, clone MGC: 24252 IMAGE: 3932604: −1.533
- log intensity, clone TUA8 Cri-du-chat region mRNA: 0.09218
- log intensity, collagen, type V, alpha 1: 1.5875
- log intensity, complement component 5 (C5): −1.896
- log intensity, core histone macroH2A2.2 (MACROH2A2): 1.673
- log intensity, cystatin C (amyloid angiopathy and cerebral hemorrhage) (CST3): 2.086
- log intensity, deiodinase, iodothyronine, type III (DIO3): −0.1369
- log intensity, dickkopf (Xenopus laevis) homolog 1 (DKK1): 0.9815
- log intensity, dual specificity phosphatase 4, clone MGC: 3713: 2.115
- log intensity, dynein, axonemal, light polypeptide 4 (DNAL4): 0.4583
- log intensity, dystrophin (muscular dystrophy, Duchenne and Becker types) (DMD), transcript variant Dp427p2: 1.404
- log intensity, ectodermal dysplasia 1, anhidrotic (ED1): 0.7966
- log intensity, elongation of very long chain fatty acids (FEN1Elo2, SUR4Elo3, yeast)-like 2 (ELOVL2): 0.09998
- log intensity, endothelin receptor type A (EDNRA), mRNA: 0.763
- log intensity, endothelin receptor type A (r1027): −1.834
- log intensity, enolase 2, (gamma, neuronal) (ENO2): 2.606
- log intensity, eomesodermin (Xenopus laevis) homolog (EOMES): 2.659
- log intensity, erythrocyte membrane protein band 4.9 (dematin) (EPB49): −0.3066
- log intensity, fasciculation and elongation protein zeta 1 (zygin I) (FEZ1), transcript variant 1: 1.864
- log intensity, forkhead box F2 (FOXF2): −1.545
- log intensity, gelsolin (amyloidosis, Finnish type) (GSN): 1.6198
- log intensity, glucose-6-phosphate transporter (G6PT) gene, G6PT-Dt allele: −0.1935
- log intensity, glutathione S-transferase A2 (GSTA2): −3.106
- log intensity, glycoprotein M6A: 0.2744
- log intensity, guanylate cyclase activator 1B (retina) (GUCA1B): −0.7142
- log intensity, heparan sulfate proteoglycan 2 (perlecan): −2.533
- log intensity, hexabrachion (tenascin C, cytotactin) (HXB): 3.969
- log intensity, high mobility group protein-R: 1.047
- log intensity, hypothetical protein BC017868 (LOC159091): −0.2902
- log intensity, hypothetical protein DKFZp434F0318: −1.115
- log intensity, hypothetical protein DKFZp434F2322: 0.07058
- log intensity, hypothetical protein DKFZp564B052: 1.478
- log intensity, hypothetical protein FLJ10312: 1.595
- log intensity, hypothetical protein FLJ11155: −3.346
- log intensity, hypothetical protein FLJ11560: −0.04411
- log intensity, hypothetical protein FLJ12538 similar to ras-related protein RAB17: 1.706
- log intensity, hypothetical protein FLJ12666 (r758): 0.2158
- log intensity, hypothetical protein FLJ12666 (r998): 2.341
- log intensity, hypothetical protein FLJ12838: 1.491
- log intensity, hypothetical protein FLJ21195 similar to protein related to DAC and cerberus: −1.385
- log intensity, hypothetical protein FLJ22471: 0.9038
- log intensity, hypothetical protein FLJ23091: −0.7609
- log intensity, hypothetical protein FLJ23514: 0.5646
- log intensity, hypothetical protein FLJ32835: −0.5956
- log intensity, hypothetical protein MGC2865, clone MGC: 20246: −2.431
- log intensity, insulin-like growth factor binding protein 6 (IGFBP6): 2.6126
- log intensity, keratin 19 (KRT19): 3.806
- log intensity, kidney-specific membrane protein NX-17: 1.919
- log intensity, lipase mRNA: −2.2131
- log intensity, lymphocyte antigen 6 complex, locus E (LY6E): 0.8664
- log intensity, mRNA for KIAA0876 protein: −0.432
- log intensity, mRNA for KIAA1161 protein: 0.7818
- log intensity, mRNA for MSX-2: 0.4072
- log intensity, mRNA for protein-tyrosine kinase: 0.161
- log intensity, mRNA; cDNA DKFZp434E082: 1.364
- log intensity, mRNA; cDNA DKFZp434K0621: 0.5814
- log intensity, mRNA; cDNA DKFZp434P228: 1.768
- log intensity, mRNA; cDNA DKFZp547H236: 1.372
- log intensity, mRNA; cDNA DKFZp564K1672: 4.494
- log intensity, mRNA; cDNA DKFZp586G2120: −1.809
- log intensity, mRNA; cDNA DKFZp586L0120: −2.726
- log intensity, mRNA; cDNA DKFZp762H185: 2.837
- log intensity, mandaselin long form: −0.1481
- log intensity, matrix metalloproteinase 15 (membrane-inserted) (MMP15): −0.2985
- log intensity, microseminoprotein, beta-(MSMB): −2.379
- log intensity, mitogen-activated protein kinase 10 (MAPK10): 0.648
- log intensity, nuclear factor of kappa light polypeptide gene enhancer in B-cells inhibitor, alpha: 2.915
- log intensity, nuclear receptor subfamily 0, group B, member 1 (NR0B1) (r534): −1.928
- log intensity, nuclear receptor subfamily 0, group B, member 1 (NR0B1) (r1079): −0.2138
